The target of this data set is HSD17B13. To be noted: ASO, HepaRG.

Drawing on the OligoGym collection, this text covers target mRNA inhibition for 81 sequences.

After the bases stand the sugars from the 5' end (letter, count) and the backbone: PS all phosphorothioate, else s phosphorothioate and o phosphodiester by linkage. Methylation of C is not given here. e = 2'-O-(2-methoxyethyl) (MOE); k = constrained ethyl (cEt); d = 2'-deoxy (DNA); m = 2'-O-methyl

Consider ATGTCATAAAAATCGC (sugars k3 d10 k3, PS), for which the target mRNA inhibition (1 µM) is 53%.

Take GTTAACCTGCAGCAGA (sugars k3 d10 k3, PS): the target mRNA inhibition (1 µM) was determined as 51%.

Regarding “CGGTCACCTTTCATAA (sugars k3 d1 m1 d8 k3, PS)”, the target mRNA inhibition (1 µM) worked out at 42%.

As to “ATCCUATATACATCCA (sugars k3 d1 m1 d8 k3, PS)”, the target mRNA inhibition (1 µM) amounted to 64%.

For the sequence GGTGCTGAGAAGATCG (sugars k3 d10 k3, PS), the target mRNA inhibition (1 µM) is 33%.

GAATCCATTCTATGCA (sugars k3 d10 k3, PS): the target mRNA inhibition (1 µM) was found to be 47%.

For the setting “1 µM”, CTCTAAAGCAGGCTAC (sugars k3 d10 k3, PS) displayed a target mRNA inhibition of 51%.

With AGACAATGACATAGAC (sugars k3 d10 k3, PS), the target mRNA inhibition (1 µM) is 14%.

As for GCTGAGAGTTCTACAC (sugars k3 d10 k3, PS), the target mRNA inhibition (1 µM) worked out at 45%.

Turning to GATTTCTAGGATGATG (sugars k3 d10 k3, PS), the target mRNA inhibition (1 µM) is 57%.

Under “1 µM”, ACTAGGAAGTGATCCA (sugars k3 d10 k3, PS) displayed a target mRNA inhibition of 58%.

For the setting “1 µM”, TGATAAAATAGGGTGC (sugars k3 d10 k3, PS) came in with a target mRNA inhibition of 44%.

CGATGGAAGAAGTGCT (sugars k3 d10 k3, PS) registered a target mRNA inhibition (1 µM) of 3%.

CAAGTGACAGCATTGA (sugars k3 d10 k3, PS) had a target mRNA inhibition (1 µM) of 48%.

Under “1 µM”, “CAGAGACATGAGGTTT (sugars kkdddddddddkekek, PS)” returned a target mRNA inhibition of 61%.

AAGTAGGAGTAGATGA (sugars k3 d10 k3, PS): the target mRNA inhibition (1 µM) came to 0%.

“ACATTAGCAAGCTAAG (sugars kkdddddddddkekek, PS)” had a target mRNA inhibition (1 µM) of 23%.

Turning to “CTGCUGCTAGTGCCAA (sugars k3 d1 m1 d8 k3, PS)”, the target mRNA inhibition (1 µM) came out at 66%.

TGCAAGTTTATCAGTA (sugars k3 d10 k3, PS): the target mRNA inhibition (0.02 µM) worked out at 28%; the target mRNA inhibition (0.078 µM) stood at 32%; the target mRNA inhibition (0.313 µM) was 62%; the target mRNA inhibition (1 µM) came to 70%; the target mRNA inhibition (1.25 µM) came to 86%; the target mRNA inhibition (5 µM) is 92%.

AGAAATTTGTGAACCT (sugars k3 d10 k3, PS) came in with a target mRNA inhibition (1 µM) of 39%.

The sequence CATTGATTCGAAACTA (sugars k3 d10 k3, PS) registered a target mRNA inhibition (1 µM) of 40%.

GACTAATGCAAGATTT (sugars k3 d10 k3, PS) came in with a target mRNA inhibition (1 µM) of 55%.

As to CCCTTAGGAAAGCTCA (sugars k3 d10 k3, PS), the target mRNA inhibition (1 µM) amounted to 37%.

“TACCTCTAAGTTAGCC (sugars k3 d9 k3 e1, PS)” registered a target mRNA inhibition (1 µM) of 30%.

Under “1 µM”, GCCACTGTGACGATGT (sugars k3 d10 k3, PS) showed a target mRNA inhibition of 9%.

For the sequence “AAATAGAGTCGGTCAC (sugars kkdddddddddkekek, PS)”, the target mRNA inhibition (1 µM) turned out to be 50%.

Where the note is “1 µM”, CATCTCTGGGACCAAG (sugars k3 d10 k3, PS) returned a target mRNA inhibition of 51%.

Regarding GTTTTTCTCTTGACAA (sugars k3 d10 k3, PS), for the setting “1 µM”, the target mRNA inhibition is 59%.

“TGACAATGGTTGCCAC (sugars kkdddddddddkekek, PS)” returned a target mRNA inhibition (1 µM) of 38%.

The sequence AATCATGGTGTGGAGG (sugars k3 d10 k3, PS) yielded a target mRNA inhibition (1 µM) of 11%.

As to “CATAACTTCATAGTGG (sugars k3 d9 k3 e1, PS)”, the target mRNA inhibition (1 µM) was 16%.

For AGTCGGTCACCTTTCA (sugars k3 d10 k3, PS), the target mRNA inhibition (1 µM) was found to be 66%.

Sequence “ATGAAGTTAGTATAGT (sugars k3 d1 m1 d8 k3, PS)” gave a target mRNA inhibition (1 µM) of 38%.

In turn, GCACATCATGTTTTGC (sugars k3 d10 k3, PS) gave a target mRNA inhibition (1 µM) of 44%.

Consider TGCTAGTGCCAAACCA (sugars k3 d10 k3, PS), for which the target mRNA inhibition by setting is: (0.02 µM) 3%; (0.078 µM) 9%; (0.313 µM) 49%; (1 µM) 78%; (1.25 µM) 58%; (5 µM) 89%.

Turning to GACAACTGATGTCCAG (sugars k3 d10 k3, PS), for the setting “1 µM”, the target mRNA inhibition was 12%.

Turning to GGCACTCAGCTGCAGT (sugars k3 d10 k3, PS), where the note is “1 µM”, the target mRNA inhibition was 49%.

Take TAATGGTAAACTGTAT (sugars k3 d10 k3, PS): the target mRNA inhibition (1 µM) was found to be 32%.

Regarding “AATATGGGATGAGGTA (sugars kkdddddddddkekek, PS)”, the target mRNA inhibition (1 µM) came out at 52%.

For the sequence “AGGAUAGTCCATGCAA (sugars k3 d1 m1 d8 k3, PS)”, under “1 µM”, the target mRNA inhibition turned out to be 55%.

GATATTGATATACGAT (sugars k3 d10 k3, PS) displayed a target mRNA inhibition (1 µM) of 2%.

As to TCTTATGTAATAGCCA (sugars k3 d10 k3, PS), the target mRNA inhibition amounted to 0% (0.02 µM); 2% (0.078 µM); 35% (0.313 µM); 77% (1 µM); 74% (1.25 µM); 91% (5 µM).

As to GCTATAGGTAGCTAAT (sugars k3 d10 k3, PS), for the setting “1 µM”, the target mRNA inhibition came to 20%.

TCCAAATCAGGTAGTT (sugars k3 d10 k3, PS) came in with a target mRNA inhibition (1 µM) of 22%.

Sequence GCCTAAAATTGTCTAA (sugars k3 d10 k3, PS) came in with a target mRNA inhibition (1 µM) of 32%.

CACACCGCGCTTATTA (sugars k3 d10 k3, PS): the target mRNA inhibition (1 µM) was 11%.

In turn, TGGGACCAAGGATATA (sugars k3 d10 k3, PS) registered a target mRNA inhibition (1 µM) of 20%.

TGTGTTAGCTTTAATT (sugars k3 d10 k3, PS) yielded a target mRNA inhibition (1 µM) of 38%.

For the setting “1 µM”, “TATTCTGTGGCATGGC (sugars k3 d1 m1 d8 k3, PS)” returned a target mRNA inhibition of 55%.

Sequence AGTGCATCTTAAGATA (sugars k3 d10 k3, PS) had a target mRNA inhibition (1 µM) of 57%.

For the sequence TATCTATTATGCACTC (sugars k3 d10 k3, PS), the target mRNA inhibition (1 µM) was found to be 48%.

TGTCAGACCTCTGTGA (sugars k3 d10 k3, PS): where the note is “1 µM”, the target mRNA inhibition amounted to 0%.

For TAGTGAACATACATTG (sugars k3 d10 k3, PS), under “1 µM”, the target mRNA inhibition was 23%.

Where the note is “1 µM”, “AATAUGGGATGAGGTA (sugars k3 d1 m1 d8 k3, PS)” displayed a target mRNA inhibition of 38%.

On to CACTATCAGAACAGTT (sugars k3 d10 k3, PS), for which the target mRNA inhibition (1 µM) was found to be 24%.

As to AACTTCATAGTGGACT (sugars k3 d10 k3, PS), the target mRNA inhibition (1 µM) was found to be 68%.

Consider GATCCATATTCCCTGA (sugars k3 d10 k3, PS), for which the target mRNA inhibition (0.02 µM) was 0%; the target mRNA inhibition (0.078 µM) is 0%; the target mRNA inhibition (0.313 µM) is 21%; the target mRNA inhibition (1 µM) was 74%; the target mRNA inhibition (1.25 µM) was 40%; the target mRNA inhibition (5 µM) is 60%.

As for TCTCAAGGAGTACTTC (sugars k3 d10 k3, PS), the target mRNA inhibition is, setting by setting: (0.02 µM) 26%; (0.078 µM) 32%; (0.313 µM) 58%; (1 µM) 80%; (1.25 µM) 82%; (5 µM) 91%.

Where the note is “1 µM”, “GTAATAGCCAGTACAG (sugars kkdddddddddkekek, PS)” displayed a target mRNA inhibition of 47%.

The sequence “AGTAGTGTAAGCTGAG (sugars k3 d1 m1 d8 k3, PS)” returned a target mRNA inhibition (1 µM) of 68%.

On to “ACATCTCTGGGACCAA (sugars k3 d9 k3 e1, PS)”, for which the target mRNA inhibition (1 µM) was determined as 65%.

“GTTAGTATAGTTATCT (sugars k3 d9 k3 e1, PS)” had a target mRNA inhibition (1 µM) of 71%.

For the setting “1 µM”, ATAAGTAGTCTGCCTG (sugars k3 d10 k3, PS) displayed a target mRNA inhibition of 43%.

Turning to AAAAAGCTCTATTGGT (sugars k3 d10 k3, PS), the target mRNA inhibition (1 µM) turned out to be 0%.

For TTCGAATCATTAAGCT (sugars k3 d10 k3, PS), the target mRNA inhibition (1 µM) stood at 63%.

Turning to ACTCCCCAAACATGGA (sugars k3 d10 k3, PS), the target mRNA inhibition (1 µM) turned out to be 48%.

On to ATTGAGATGACAGTGG (sugars k3 d10 k3, PS), for which the target mRNA inhibition (0.02 µM) was 21%; the target mRNA inhibition (0.078 µM) stood at 40%; the target mRNA inhibition (0.313 µM) amounted to 64%; the target mRNA inhibition (1 µM) stood at 70%; the target mRNA inhibition (1.25 µM) came out at 77%; the target mRNA inhibition (5 µM) was 91%.

As to “TCTTGACAATGGTTGC (sugars k3 d1 m1 d8 k3, PS)”, the target mRNA inhibition reads like this: (0.02 µM) 25%; (0.078 µM) 16%; (0.313 µM) 39%; (1 µM) 67%; (1.25 µM) 60%; (5 µM) 87%.

As to CTCAGAGTTCAGGCAA (sugars k3 d10 k3, PS), for the setting “1 µM”, the target mRNA inhibition came out at 67%.

As to AAAAATCGCTGCTTAG (sugars k3 d10 k3, PS), where the note is “1 µM”, the target mRNA inhibition was 25%.

TGTGAAGAGCTGGTAA (sugars k3 d10 k3, PS) registered a target mRNA inhibition (1 µM) of 41%.

CATAAAGGTGGGATAA (sugars k3 d10 k3, PS) gave a target mRNA inhibition (1 µM) of 23%.

Regarding TCTCTGGGACCAAGGA (sugars k3 d10 k3, PS), the target mRNA inhibition (1 µM) was 56%.

With TTTATTGGTATGGTAA (sugars k3 d10 k3, PS), the target mRNA inhibition (1 µM) was 25%.

Consider ACTTGATCTCTTAGCT (sugars k3 d10 k3, PS), for which, for the setting “1 µM”, the target mRNA inhibition was found to be 59%.

For TTCTATTGTATGAGGT (sugars k3 d10 k3, PS), the target mRNA inhibition (1 µM) was 0%.

“ACACTAATATTGAGGC (sugars kkdddddddddkekek, PS)”: where the note is “1 µM”, the target mRNA inhibition came out at 55%.

As to TGAAGTTAGTATAGTT (sugars k3 d10 k3, PS), the target mRNA inhibition (1 µM) stood at 43%.

In turn, CCACATAGCTAACTCA (sugars k3 d10 k3, PS) displayed a target mRNA inhibition (1 µM) of 53%.

“AGACUTTGAGACTCTT (sugars k3 d1 m1 d8 k3, PS)”: for the setting “1 µM”, the target mRNA inhibition came to 48%.

Under “1 µM”, AGCTATTGTCTTTGAT (sugars k3 d10 k3, PS) showed a target mRNA inhibition of 39%.
